The source of these data is PMC7260283, “The Amino Terminus of LeuT Changes Conformation in an Environment Sensitive Manner” (Neurochemical Research, 2019).

The target in the assay is T1, wild type LeuT (Aquifex aeolicus, UniProt O67854).
T1 construct: gene snf; full-length, His-tagged, expressed in E. coli C41(DE3), purified in DDM; plasmid from Eric Gouaux
The assay can be described thus: scintillation proximity assay, competition of cold leucine with [3H]leucine, YSi beads. In kind it is binding. As to conditions: purified His-tagged protein; competitive with [3H]leucine. In general terms: SPA uses beads or plates that emit light when radiolabelled molecules are held near them.

`CC(C)C[C@H](N)C(=O)O` [leucine] came in with a KI of 15.5 ± 2.4 nM.
